From the supplement of paper PMC10307832

Assays:
Assay in all cases: relative viability (nuclei count vs DMSO), 5 days (fraction); higher = more cells survive
COR-L23 = tested on: COR-L23
In short: (§1)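 Lung cancer cell lines in 1536-well plates got either a single drug or a fixed anchor-drug dose together with five library-drug doses (not always all listed) in √10 steps, by pin tool, on the day after seeding. Nuclei were counted after 5 days, and relative viability is the treated-to-vehicle ratio of nuclei counts. Values are medians of duplicate plates.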

NCI-H2405 = tested on: NCI-H2405
In short: as §1

NCI-H1793 = tested on: NCI-H1793
In short: as §1

NCI-H1650 = tested on: NCI-H1650
In short: as §1

NCI-H1993 = tested on: NCI-H1993
In short: as §1

ABC-1 = tested on: ABC-1
In short: as §1

HARA = tested on: HARA
In short: as §1

LK-2 = tested on: LK-2
In short: as §1

NCI-H2228 = tested on: NCI-H2228
In short: as §1

NCI-H1944 = tested on: NCI-H1944
In short: as §1

NCI-H838 = tested on: NCI-H838
In short: as §1

HCC-15 = tested on: HCC-15
In short: as §1

NCI-H2009 = tested on: NCI-H2009
In short: as §1

NCI-H23 = tested on: NCI-H23
In short: as §1

NCI-H1734 = tested on: NCI-H1734
In short: as §1

EMC-BAC-2 = tested on: EMC-BAC-2
In short: as §1

A-427 = tested on: A-427
In short: as §1

ChaGo-K-1 = tested on: ChaGo-K-1
In short: as §1

NCI-H2023 = tested on: NCI-H2023
In short: as §1

UMC-11 = tested on: UMC-11
In short: as §1

LC-2-ad = tested on: LC-2-ad
In short: as §1

SK-LU-1 = tested on: SK-LU-1
In short: as §1

With `Clc1ccc(Nc2nnc(Cc3ccncc3)c3ccccc23)cc1` [Vatalanib] + CCNC(=O)c1noc(-c2cc(C(C)C)c(O)cc2O)c1-c1ccc(CN2CCOCC2)cc1 [Luminespib] (partner 0.01 µM) the relative viability (COR-L23; first compound 0.04 µM) was 0.715, the relative viability (COR-L23; first compound 0.1265 µM) was 0.666 and the relative viability (COR-L23; first compound 0.4 µM) was 0.835. For the same compound, the relative viability (COR-L23; first compound 1.265 µM) was 0.646, the relative viability (COR-L23; first compound 4 µM) was 0.588 and the relative viability (NCI-H2405; first compound 0.04 µM) was 0.753. The relative viability (NCI-H2405; first compound 0.1265 µM) was 0.775, the relative viability (NCI-H2405; first compound 1.265 µM) was 0.594 and the relative viability (NCI-H2405; first compound 4 µM) was 0.717. The relative viability (NCI-H1793; first compound 0.04 µM) was 0.156, the relative viability (NCI-H1793; first compound 0.1265 µM) was 0.19 and the relative viability (NCI-H1793; first compound 0.4 µM) was 0.192. For the same compound, the relative viability (NCI-H1793; first compound 1.265 µM) was 0.166, the relative viability (NCI-H1793; first compound 4 µM) was 0.2 and the relative viability (NCI-H1650; first compound 0.04 µM) was 0.21. The relative viability (NCI-H1650; first compound 0.1265 µM) was 0.193, the relative viability (NCI-H1650; first compound 0.4 µM) was 0.206 and the relative viability (NCI-H1650; first compound 1.265 µM) was 0.203. The relative viability (NCI-H1650; first compound 4 µM) was 0.208, the relative viability (NCI-H1993; first compound 0.04 µM) was 0.955 and the relative viability (NCI-H1993; first compound 0.1265 µM) was 0.958. For the same compound, the relative viability (NCI-H1993; first compound 0.4 µM) was 0.865, the relative viability (NCI-H1993; first compound 1.265 µM) was 0.71 and the relative viability (NCI-H1993; first compound 4 µM) was 0.82. For the same compound, the relative viability (ABC-1; first compound 0.04 µM) was 0.822, the relative viability (ABC-1; first compound 1.265 µM) was 0.63 and the relative viability (ABC-1; first compound 4 µM) was 0.507. For the same compound, the relative viability (HARA; first compound 0.04 µM) was 0.682, the relative viability (HARA; first compound 0.1265 µM) was 0.617 and the relative viability (HARA; first compound 0.4 µM) was 0.669. It also gave a relative viability (HARA; first compound 1.265 µM) of 0.738, a relative viability (HARA; first compound 4 µM) of 0.591 and a relative viability (LK-2; first compound 0.04 µM) of 0.185. For the same compound, the relative viability (LK-2; first compound 0.1265 µM) was 0.217, the relative viability (LK-2; first compound 0.4 µM) was 0.188 and the relative viability (LK-2; first compound 1.265 µM) was 0.202. The relative viability (LK-2; first compound 4 µM) was 0.182, the relative viability (NCI-H2228; first compound 0.04 µM) was 0.145 and the relative viability (NCI-H2228; first compound 0.1265 µM) was 0.102. It also gave a relative viability (NCI-H2228; first compound 0.4 µM) of 0.163, a relative viability (NCI-H2228; first compound 1.265 µM) of 0.115 and a relative viability (NCI-H2228; first compound 4 µM) of 0.157. For the same compound, the relative viability (NCI-H1944; first compound 0.04 µM) was 0.796, the relative viability (NCI-H1944; first compound 0.1265 µM) was 0.687 and the relative viability (NCI-H1944; first compound 0.4 µM) was 0.845. The relative viability (NCI-H1944; first compound 1.265 µM) was 0.679, the relative viability (NCI-H1944; first compound 4 µM) was 0.752 and the relative viability (NCI-H838; first compound 0.04 µM) was 0.326. The relative viability (NCI-H838; first compound 0.1265 µM) was 0.267, the relative viability (NCI-H838; first compound 0.4 µM) was 0.244 and the relative viability (NCI-H838; first compound 1.265 µM) was 0.305. It also gave a relative viability (NCI-H838; first compound 4 µM) of 0.378, a relative viability (HCC-15; first compound 0.04 µM) of 0.42 and a relative viability (HCC-15; first compound 0.1265 µM) of 0.457. The relative viability (HCC-15; first compound 0.4 µM) was 0.181, the relative viability (HCC-15; first compound 1.265 µM) was 0.234 and the relative viability (HCC-15; first compound 4 µM) was 0.235. The relative viability (NCI-H2009; first compound 0.04 µM) was 1.11, the relative viability (NCI-H2009; first compound 0.1265 µM) was 0.983 and the relative viability (NCI-H2009; first compound 0.4 µM) was 1.06. For the same compound, the relative viability (NCI-H2009; first compound 1.265 µM) was 0.962, the relative viability (NCI-H2009; first compound 4 µM) was 1.04 and the relative viability (NCI-H23; first compound 0.04 µM) was 0.229. The relative viability (NCI-H23; first compound 0.1265 µM) was 0.213, the relative viability (NCI-H23; first compound 0.4 µM) was 0.227 and the relative viability (NCI-H23; first compound 1.265 µM) was 0.19. It also gave a relative viability (NCI-H23; first compound 4 µM) of 0.205, a relative viability (NCI-H1734; first compound 0.04 µM) of 0.224 and a relative viability (NCI-H1734; first compound 0.1265 µM) of 0.153. The relative viability (NCI-H1734; first compound 0.4 µM) was 0.193, the relative viability (NCI-H1734; first compound 1.265 µM) was 0.167 and the relative viability (NCI-H1734; first compound 4 µM) was 0.192. For the same compound, the relative viability (EMC-BAC-2; first compound 0.04 µM) was 1.16, the relative viability (EMC-BAC-2; first compound 0.1265 µM) was 1.13 and the relative viability (EMC-BAC-2; first compound 0.4 µM) was 1.34. It also gave a relative viability (EMC-BAC-2; first compound 1.265 µM) of 1.09, a relative viability (EMC-BAC-2; first compound 4 µM) of 1.15 and a relative viability (A-427; first compound 0.04 µM) of 0.861. For the same compound, the relative viability (A-427; first compound 0.1265 µM) was 0.909, the relative viability (A-427; first compound 0.4 µM) was 1.03 and the relative viability (A-427; first compound 1.265 µM) was 0.927. For the same compound, the relative viability (A-427; first compound 4 µM) was 0.948, the relative viability (ChaGo-K-1; first compound 0.04 µM) was 0.636 and the relative viability (ChaGo-K-1; first compound 0.1265 µM) was 0.608. For the same compound, the relative viability (ChaGo-K-1; first compound 0.4 µM) was 0.671, the relative viability (ChaGo-K-1; first compound 1.265 µM) was 0.471 and the relative viability (ChaGo-K-1; first compound 4 µM) was 0.45. For the same compound, the relative viability (NCI-H2023; first compound 0.04 µM) was 0.58, the relative viability (NCI-H2023; first compound 0.1265 µM) was 0.66 and the relative viability (NCI-H2023; first compound 0.4 µM) was 0.762. It also gave a relative viability (NCI-H2023; first compound 1.265 µM) of 0.537, a relative viability (NCI-H2023; first compound 4 µM) of 0.688 and a relative viability (UMC-11; first compound 0.04 µM) of 1.08. It also gave a relative viability (UMC-11; first compound 0.1265 µM) of 1.11, a relative viability (UMC-11; first compound 0.4 µM) of 0.996 and a relative viability (UMC-11; first compound 1.265 µM) of 1.02. The relative viability (UMC-11; first compound 4 µM) was 1.01, the relative viability (LC-2-ad; first compound 0.04 µM) was 1.1 and the relative viability (LC-2-ad; first compound 0.1265 µM) was 1.04. The relative viability (LC-2-ad; first compound 1.265 µM) was 0.997, the relative viability (LC-2-ad; first compound 4 µM) was 0.948 and the relative viability (SK-LU-1; first compound 0.04 µM) was 0.21. For the same compound, the relative viability (SK-LU-1; first compound 0.1265 µM) was 0.197, the relative viability (SK-LU-1; first compound 0.4 µM) was 0.241 and the relative viability (SK-LU-1; first compound 1.265 µM) was 0.218. For the same compound, the relative viability (SK-LU-1; first compound 4 µM) was 0.232.
